Experimental data taken from patent US10870625B2, “Zwitterionic propargyl-linked antifolates useful for treating bacterial infections” (THE UNIVERSITY OF CONNECTICUT, priority 2016, dated 2020).
In brackets after ≈: the same amount, converted by molar mass. Read-outs that look alike come from different tables or passages of the source.

Key:
S. aureus (Sa) DHFR = S. aureus (Sa) DHFR (Staphylococcus aureus, UniProt P0A017); format: biochemical; conditions: Table 2
E. coli (Ec) DHFR = E. coli (Ec) DHFR (Escherichia coli (strain K12), UniProt P0ABQ4); assay: E. coli DHFR enzyme inhibition (NADPH oxidation, 340 nm); format: biochemical; conditions: Table 2
[1] = system: S. aureus ATCC strain 43300; assay: microbe, parasite or virus in culture; format: cell-based, Staphylococcus aureus; conditions: for MIC Sa43300: Table 12, wild-type strain
E. coli (ATCC 25922) = assay: E. coli MIC, microdilution broth assay; format: cell-based, Escherichia coli; conditions: Table 2; wild-type E. coli
Protocol: Minimum inhibitory concentrations were determined using E. coli (ATCC 25922) and the microdilution broth assay with an inoculum of […] CFU/mL in Isosensitest Broth (Oxoid).

E. coli NR698 = format: cell-based, Escherichia coli; conditions: Table 2
MtbDHFR [2] = target: T1, MtbDHFR (Mycobacterium tuberculosis (strain ATCC 25618 / H37Rv), UniProt P9WNX1); assay: M. tuberculosis DHFR enzyme inhibition; format: biochemical
Mtb = assay: M. tuberculosis MIC, microtiter broth dilution (Table 6); format: cell-based, Mycobacterium tuberculosis
Protocol: (§1) (provided by Leonid Heifets).
(§2) Each isolate was tested in duplicate.

Mtb Erdman = Mtb Erdman MIC, microtiter broth dilution; format: cell-based, Mycobacterium tuberculosis
Protocol: as §1, §2

Mtb 5 = format: cell-based, Mycobacterium tuberculosis; conditions: XDR strain
Mtb 365 = format: cell-based, Mycobacterium tuberculosis; conditions: MDR strain
Mtb 276 = format: cell-based, Mycobacterium tuberculosis; conditions: MDR strain
Mtb 352 = format: cell-based, Mycobacterium tuberculosis; conditions: MDR strain
Mtb 56 = format: cell-based, Mycobacterium tuberculosis; conditions: MDR strain
Mtb C-31 = format: cell-based, Mycobacterium tuberculosis; conditions: MDR strain
Sa(H30N) strain [3] = system: Sa(H30N) strain
CYP3A4 = CYP3A4 (Homo sapiens (Human), UniProt P08684); assay: Cytochrome P450 inhibition, CYP3A4
CYP2D6 = CYP2D6 (Homo sapiens (Human), UniProt P10635); assay: Cytochrome P450 inhibition, CYP2D6
[4] = Microsomal stability assay (UPLC of parent compound)
human (Hu) DHFR = human (Hu) DHFR (Homo sapiens (Human), UniProt P00374); assay: Human DHFR enzyme inhibition (Example 5); format: biochemical; conditions: Table 2
Sa43300 [5] = format: cell-based, Staphylococcus aureus; conditions: progenitor Sa43300, 6× MIC
Sa43300 [6] = conditions: previously reported studies, S. aureus 43300; cited from earlier work
Sa(H30N) strain [7] = assay: microbe, parasite or virus in culture; conditions: Staphylococcus aureus, read-out: MIC Sa(H30N)
MtbDHFR [8] = target: T1, MtbDHFR; conditions: data from Nixon et al., Chem. Biol. (2014); cited from earlier work
[9] = system: wild-type Gram-negative E. coli; conditions: background; cited from earlier work
[10] = system: E. coli, efflux pumps genetically deleted; conditions: background; cited from earlier work
[11] = system: methicillin-resistant S. aureus (MRSA); conditions: background; cited from earlier work

CCc1nc(N)nc(N)c1C#CCc1cc(-c2ccc(C(=O)O)cc2)ccc1OC [Compound 15]
IC50 (S. aureus (Sa) DHFR): 32 nM | IC50 (E. coli (Ec) DHFR): 90 nM | MIC S. aureus 43300 [1]: 0.0195 µg/mL (≈ 0.0485 µM) | MIC Sa43300 [1]: 0.0195 µg/mL (≈ 0.0485 µM) | MIC E. coli 25922 (E. coli (ATCC 25922)): >20 µg/mL | MIC E. coli NR698 (E. coli NR698): 0.0098 µg/mL (≈ 0.0244 µM) | IC50 (MtbDHFR [2]): 173 nM | MIC Mtb (Mtb): 4 µg/mL (≈ 9.94 µM) | MIC Mtb Erdman (Mtb Erdman): 16 µg/mL (≈ 39.8 µM) | MIC Mtb 5 (Mtb 5): 8 µg/mL (≈ 19.9 µM) | MIC Mtb 365 (Mtb 365): 4 µg/mL (≈ 9.94 µM) | MIC Mtb 276 (Mtb 276): 16 µg/mL (≈ 39.8 µM) | MIC Mtb 352 (Mtb 352): 16 µg/mL (≈ 39.8 µM) | MIC Mtb56 (Mtb 56): 16 µg/mL (≈ 39.8 µM) | MIC Mtb C-31 (Mtb C-31): >32 µg/mL | MIC Sa(H30N) (Sa(H30N) strain [3]): 0.1563 µg/mL (≈ 0.388 µM) | concentration required for inhibition of CYP3A4 (CYP3A4): greater than 50 μM | concentration required for inhibition of CYP2D6 (CYP2D6): greater than 50 μM | phase I half-life ([4]; phase I): 1.65 h | phase II half-life ([4]; phase II): approximately 87 min

CCc1nc(N)nc(N)c1C#CC(SC)c1cc(-c2ccc(C(=O)O)cc2)ccc1OC (centres unmarked) [Compound 29]
IC50 (S. aureus (Sa) DHFR): 37 nM | IC50 (E. coli (Ec) DHFR): 177 nM | IC50 (human (Hu) DHFR): 266 nM | MIC S. aureus 43300 [1]: 0.625 µg/mL (≈ 1.39 µM) | MIC Sa43300 [1]: 0.0391 µg/mL (≈ 0.0872 µM) | MIC E. coli 25922 (E. coli (ATCC 25922)): >20 µg/mL | MIC E. coli NR698 (E. coli NR698): 0.0391 µg/mL (≈ 0.0872 µM) | MIC Mtb (Mtb): 0.5 µg/mL (≈ 1.11 µM) | MIC Sa(H30N) (Sa(H30N) strain [3]): 0.1563 µg/mL (≈ 0.348 µM)

CCc1nc(N)nc(N)c1C#CC(C)c1cc(OC)cc(-c2ccncc2)c1 (centres unmarked) [Compound A]
MIC ([1]; Staphylococcus aureus, ATCC43300, read-out: MIC Sa43300): 0.0781 µg/mL (≈ 0.209 µM) | Mutational Frequency of DHFR mutation F98Y (Sa43300 [5]): 3.11 × 10^−11 | Mutational Frequency of DHFR mutation H30N (Sa43300 [5]): 4.67 × 10^−11 | Mutational Frequency of DHFR mutation H149R (Sa43300 [5]): 1.65 × 10^−10 | mutation frequencies of mutants F98Y and F98I (Sa43300 [6]): 10^−10 | MIC (Sa(H30N) strain [7]): 2.5 µg/mL (≈ 6.69 µM)

COc1cc(NCc2ccc3nc(N)nc(N)c3c2C)cc(OC)c1OC [Trimetrexate, trimetrexate, reference compound]
MIC (Mtb; Mycobacterium tuberculosis): 4 µg/mL (≈ 10.8 µM) | IC50 (MtbDHFR [8]): 17 nM

CN(Cc1cnc2nc(N)nc(N)c2n1)c1ccc(C(=O)N[C@@H](CCC(=O)O)C(=O)O)cc1 [methotrexate]
MIC wild-type E. coli [9]: over 1 mM | MIC E. coli, efflux pumps genetically deleted [10]: 64 to 256 µM | MIC50 MRSA [11]: 20 µg/mL (≈ 44 µM) | MIC90 MRSA [11]: 100 µg/mL (≈ 220 µM)
